Experimental data: article PMC11157491, “Novel Alaninamide Derivatives with Drug-like Potential for Development as Antiseizure and Antinociceptive Therapies—In Vitro and In Vivo Characterization” (ACS Chemical Neuroscience, 2024)
Where two headings read alike, the source gives them in different places.

Key:
mice [1] = assay: PTZ-induced kindling; assay type: in vivo; conditions: for percentage of fully kindled mice: PTZ 40 mg/kg; for mean seizure severity score: 40 mg/kg
Method: The percentage of fully kindled mice in the control group was 77%. […] These slight differences were not statistically significant as compared to the PTZ control group.
Data are shown as means of seizure severity ± SEM (n = 13–15 animals). The statistical significance was evaluated by a mixed-effect model for repeated measures followed by Tukey’s post hoc test: *p < 0.05, **p < 0.01, ***p < 0.001, and ****p < 0.0001 as compared to the control group (GraphPad Prism 8).
(§1) The procedure was performed as described in detail in our earlier studies.[15],[65] […] The seizure severity was scored using the modified Racine’s scale. […] 24 h after the last PTZ injection, animals were subjected to the locomotor activity test, the elevated plus maze test, and the forced swim test according to the methods described in detail elsewhere. After behavioral tests, animals were sacrificed and the brains were rapidly removed. Hippocampi and cortices were dissected, frozen, and stored at −80 °C until the assay of determination of GABA and glutamate concentration.
The mean seizure severity scores were calculated for all experimental groups after each PTZ injection and analyzed using a mixed-effect model for repeated measures with Tukey’s post hoc test. Fisher’s exact probability test was used to compare the percentage of fully kindled mice.

[2] = system: fast voltage-gated sodium channels in rat prefrontal cortex pyramidal neurons; assay: Patch-clamp recording of fast sodium currents; assay type: cell-based; conditions: control = 1.0
Method: Due to the relatively high concentration of compounds used in the in vitro assays, as well as brain concentration of 28 (>10 μM after 25 mg/kg dose administration) determined in the pharmacokinetic studies (see Section 2.10), it seems unlikely that compounds described herein act by any of mechanisms tested in the aforementioned binding and functional studies. […] Thus, in further in vitro assays, 28 was also evaluated for its influence on fast voltage-gated sodium channels in rat prefrontal cortex pyramidal neurons using the patch-clamp technique (maximal currents were evoked by rectangular voltage steps to −10 mV).
The averaged, maximal normalized amplitudes of voltage-gated sodium currents were 1.0 in control, 0.72 ± 0.06 after application of 28, and 0.86 ± 0.05 after wash-out (control vs 28p < 0.05).
Patch-clamp studies in prefrontal cortex pyramidal neurons. The methodology of slice preparation, preparation of dispersed cortical neurons, and sodium current recording technique were the same as in our previous study.[75]

mice [3] = assay: Formalin test; assay type: in vivo; conditions: Mus musculus, ip, 30 min before test
Excerpt: One of the most useful screening methods for testing clinically relevant molecules is the formalin model. The local injection of formalin solution induces two distinct phases of the nociceptive response, which are associated with immediate activation of nociceptors (phase I) and sensitization of spinal reflex circuits (phase II).[41] It is important to note that during the second phase, there is also an inflammatory response to tissue damage. […] Thus, this model has been successfully used to assess the analgesic efficacy of a variety of compounds, including ASMs.[42]
The experimental groups consisted of 10 adult male Albino Swiss mice (CD-1, 18–25 g). Each animal was tested only once. Immediately after the assay, the animals were sacrificed by cervical dislocation. Behavioral measurements were observed by trained observers. […] The in vivo procedure for the model of capsaicin-induced nociception was previously reported;[67] the animals were pretreated with vehicle (10 mL/kg, negative control), and the dose–response of investigated compounds was evaluated at 12.5, 25, and 50 mg/kg.
Data are presented as means ± standard error of the mean (SEM). […] Statistically significant differences between groups were calculated using one-way analysis of variance (ANOVA) and the post hoc Dunnett’s multiple comparison test or two-way analysis of variance (ANOVA). […]

mice [4] = assay: Spontaneous locomotor activity; assay type: in vivo; conditions: all tested doses, i.p. 30 min before
Method: We aimed to test the influence of the test compound on spontaneous locomotor activity to investigate its sedative properties. The strong sedative activity of new compounds is considered an undesirable property, which may lead to an incorrect or ambiguous interpretation of the in vivo results.
Figure S3. […] The test compound or […]
vehicle (1% Tween 80 solution) were administered 30 min i.p. before the 30-min long evaluation of locomotor activity. The results are presented as bar plots showing the mean ± SEM. The statistical significance was evaluated by one-way ANOVA followed by Dunnett’s post hoc test: * p < 0.05, *** p < 0.001, n = 8–10 mice per […]
(1 picture or pasted object on this page, not shown here)

PTZ-kindled mice = assay: Behavioral tests in PTZ-kindled mice (locomotor activity, elevated plus maze, forced swim test); assay type: in vivo
Method: As compared to the nonkindled control group, there were no changes in locomotor activity, as well as anxiety- and depressive-like behavior in the PTZ-kindled control group.
as §1
Figure S1. Acute effects of compound 26 (A) and 28 (B) on grip strength in mice. Both compounds were administered i.p. at a dose of 50 mg/kg, 30 min before the test. Control animals received vehicle. Data are presented as means ± SEM of grip strength expressed in mN/g of body weight (n = 10animals). The statistical significance was evaluated by a Student's t test (GraphPad Prism 8). […]
entries in the elevated plus maze test; (B) the percentage of the time spent in the open arms in the elevated plus maze test; (C) spontaneous locomotor activity; (D) total immobility duration in the forced swim test in mice subjected to the PTZ kindling procedure. PTZ (40 mg/kg, i.p.) was given three times a week, 30 min after […]
Behavioral tests were performed 24 h after the last PTZ injection. Data are shown as means ± SEM (n = 10–15 animals). The statistical significance was evaluated by one-way ANOVA followed by the Tukey’s post hoc test: *p < 0.05, (GraphPad Prism 8). […]

## CC(=O)NC(C)C(=O)N1CCN(c2cccc(OC(F)(F)F)c2)CC1 (stereo not drawn) [Compound 28, N-(1-oxo-1-(4-(3-(Trifluoromethoxy)phenyl)piperazin-1-yl)propan-2-yl)acetamide]
Mice [1]; 10 mg/kg i.p. every 24 h
  percentage of fully kindled mice: 71%
Mice [1]; 20 mg/kg i.p. every 24 h
  percentage of fully kindled mice: 73%
Mice [1]; 40 mg/kg i.p. every 24 h
  percentage of fully kindled mice: 47%
Mice [1]; after the first PTZ injection
  mean seizure severity score: 1.00 ± 0.00
Mice [1]; after the last PTZ injection
  mean seizure severity score: 3.40 ± 0.45
[2]; 10 μM, after application
  averaged maximal normalized amplitude of voltage-gated sodium currents: 0.72 ± 0.06
[2]; after wash-out
  averaged maximal normalized amplitude of voltage-gated sodium currents: 0.86 ± 0.05
Mice [3]; read-out: ED50 formalin test phase I (acute phase)
  ED50: 34.3 mg/kg
Mice [3]; read-out: ED50 formalin test phase II (late phase)
  ED50: 22 mg/kg
Mice [4]
  spontaneous locomotor activity: decreased spontaneous locomotor activity
PTZ-kindled mice; 10 and 20 mg/kg, vs PTZ-kindled control
  decrease of total immobility duration in the forced swim test: ~10%
PTZ-kindled mice; repeated administration
  locomotor activity and anxiety-related behavior: did not affect
